Experimental findings from patent publication US6767890B1, “Peptides having anti-cancer and anti-inflammatory activity” (priority 1998, dated 2004) are described below.

The target of assay [1] is T1, PLA2, Pancreatic (Sus scrofa, UniProt P00592).
T1 construct: porcine; from tissue; host or cells: porcine pancreas
Nature of the assay: PLA2, Pancreatic enzyme assay. Conditions: 300.0 μM; average of duplicate; negative = stimulation. Format: biochemical, porcine. Here is the method: (§1) The peptide was further screened in vitro in a variety of enzyme and biochemical assays. Methods employed were adapted from the scientific literature to maximize reliability and reproducibility. The primary literature reference for each assay is listed in Table 11 opposite the results for each assay.
(§2) Results presented in Table 10, “Results,” are the average of duplicate determinations, unless otherwise noted.
(§3) Reference compounds were tested concurrently at 5 concentrations as an integral part of each assay to ensure the validity of the results obtained.
(§4) Enzyme assays were performed under conditions described in Table 8, “Experimental Conditions.”. The commercial suppliers and catalog numbers of substrates employed in this study are given in Table 7, “Material Sources.” The name, commercial source, and catalog numbers of concurrent reference compounds (controls) employed in this study are given in Table 9, “Reference Compound Data.” The reaction catalyzed by each enzyme is listed in Table 8, “Experimental Conditions.”
(§5) Biochemical assay results are presented in Table 10, as the percent inhibition of specific binding or activity, and unless noted are the average of duplicate tubes tested at each concentration.

The target of assay [2] is T2, Leukotriene B4 (Homo sapiens, UniProt Q15722).
T2 construct: human U937; endogenous in cells; host or cells: U937 cells
The assay is described as follows: Leukotriene B4 radioligand binding. Conditions: 10.0 μM; specific binding of [3H]LTB4; negative = stimulation. As to the method:
(§6) The peptide was further screened in vitro in a variety of enzyme and biochemical assays. Methods employed were adapted from the scientific literature to maximize reliability and reproducibility.
as §2
(§7) Radioligand binding assays were performed under conditions described in Table 8, “Experimental Conditions.” Radioligands employed in this study are given in Table 8, and commercial sources and catalog numbers of the radioligands are provided in Table 7, “Material Sources.” Unlabeled, blocking ligands employed this study are listed in Table 8, “Experimenal Conditions,” along with the commercial sources and catalog number of the unlabeled ligand. The concurrent reference compound (control) employed in each assay is listed in Table 9, “Reference Compound Data,” along with the commercial supplier and catalog number of the compound. Where receptors have been obtained through recombinant expression techniques, the species from which the cDNA was obtained, and the type of expression system employed (mammalian, insect, bacterial) is also given Table 7.
(§8) Maximum total binding and nonspecific binding were determined each time each assay was run. Nonspecific binding was defined as the proportion of total binding not displaced by unlabeled ligand specific for the receptor. […]

For assay [3], the target named is T3, 5-Lipoxygenase (Rattus norvegicus, UniProt P12527).
T3 construct: rat RBL-1 cells; endogenous in cells; host or cells: RBL-1 cells
Nature of the assay: 5-Lipoxygenase enzyme assay. Format: biochemical. The settings on record: 30.0 μM; average of duplicate; negative = stimulation.

The subject of assay [4] is TNF-α. The assay is described as follows: TNF-α radioligand binding. Further details: species or system human. Conditions: 10.0 μM; specific binding of [125I]TNF-alpha; negative = stimulation. As to the method: as §6, §2, §7, §8
Assay [5] concerns Adjuvant Induced Arthritis. The assay is described as follows: Adjuvant Induced Arthritis Model. Format: in vivo. The settings on record: rat, 20 mg per KG body weight orally once per day for 14 days, Day 14. As to the method:
Adjuvant Induced Arthritis Model: Male Sprague-Dawley rats (160-180 g) were sensitized by injecting Fruend's Complete Adjuvant (0.5% suspension of killed mycobacterium tuberculosis (H37RA, Difco in mineral oil)). 0.05 ml was administered intradermally at a plantar site on the right hind leg of each rat. The test materials were given orally (by gavage) in 0.5% methylcelluose, at a dose level of 20 milligrams per kilo body weight, and given once per day for 14 days. The administration was started the day after sensitization. The left hind paw was measured just before sensitization and on Day 14, and the plantar edema inhibitory rate and the body weight gain rate were determined in comparison with the nonsensitized rat groups. The paw weights for each group in each test run were averaged. Activity was calculated as follows: [formula]
The Anti-inflammatory response is the difference in the mean foot volume. […] FIG. 4.

The subject of assay [6] is Protein Kinase C, Non-Select. Nature of the assay: Protein Kinase C, Non-Select. enzyme assay. The settings on record: 300.0 μM; average of duplicate; negative = stimulation. Format: biochemical, rat. Here is the method: as §1, §2, §3, §4, §5
For assay [7], the target named is T4, Histamine H3 (Rattus norvegicus, UniProt Q9QYN8).
T4 construct: rat brain; from tissue; host or cells: rat brain
Nature of the assay: Histamine H3 radioligand binding. Conditions: 10.0 μM; specific binding of [3H]NAMH; negative = stimulation. As to the method:
as §1, §2, §3
Radioligand binding assays were performed under conditions described in Table 8, “Experimental Conditions.” Radioligands employed in this study are given in Table 8, and commercial sources and catalog numbers of the radioligands are provided in Table 7, “Material Sources.” Unlabeled, blocking ligands employed this study are listed in Table 8, “Experimenal Conditions,” along with the commercial sources and catalog number of the unlabeled ligand. The concurrent reference compound (control) employed in each assay is listed in Table 9, “Reference Compound Data,” along with the commercial supplier and catalog number of the compound. […]
(§9) Maximum total binding and nonspecific binding were determined each time each assay was run. […]
(§10) Where inhibition constants (Ki) are presented, the Ki values were calculated using the equation of Cheng and Prusoff (Cheng, Y., Prusoff, W. H., Biochem. Pharmacol. […], 1973) using the observed IC50 of the tested compound, the concentration of radioligand employed in the assay, and the historical values for the Kd of the ligand (obtained experimentally). Where presented, the Hill Coefficient (nH), defining the scope of the competitive binding curve, was calculated using GraphPad Prism. […] Where IC50, Ki, and/or Hill Slope data is presented without Standard Error of the Mean (SEM), data are insufficient to be quantitative, and the values presented (Ki, IC50, nH) should be interpreted with caution. […]

The target of assay [8] is Protein Kinase C - γ (Oryctolagus cuniculus, UniProt P10829). The assay is described as follows: Protein Kinase C - γ enzyme assay. Format: biochemical, rabbit. Conditions: 100.0 μM; average of duplicate; negative = stimulation. As to the method: as §6
Unless otherwise indicated, the peptide was tested in duplicate at the concentrations indicated for each assay. Results presented in Table 10, “Results,” are the average of duplicate determinations, unless otherwise noted.
as §4, §5

Assay [9] deals with T5, Interleukin-1α (Mus musculus, UniProt P13504).
T5 construct: 3T3 cells; endogenous in cells; host or cells: Swiss 3T3 cells
The assay is described as follows: Interleukin-1α radioligand binding. Conditions: 10.0 μM; specific binding of [125I]IL-1 alpha; negative = stimulation. As to the method:
as §1, §2
Reference compounds were tested concurrently at 5 concentrations as an integral part of each assay to ensure the validity of the results obtained. […]
as §9, §10

Assay [10] has as its target Ca++ Ch.-L, Benzothiazepine (Rattus norvegicus, UniProt P22002). Nature of the assay: Ca++ Ch.-L, Benzothiazepine radioligand binding. Conditions: 10.0 μM; specific binding of [3H]Diltiazem; negative = stimulation. As to the method: as §6, §2, §7, §8
Assay [11] concerns PAF-induced mortality. Nature of the assay: Platelet Activating Factor (PAF) Antagonism. Conditions: Peptide 100 mg/kg, WEB-2086 3 mg/kg. Format: in vivo, mouse. As to the method:
For in vivo assay, distilled water and saline was used as vehicle in oral and intraperitoneal administration, respectively. Dosing volume was 20 ml/kg for mice or 10 ml/kg for rats.
Groups of 5 male ICR mice weighing 22±2 gms were employed. At dose of 100 mg/kg test substance dissolved in a vehicle of distilled water were administered orally. The control group received vehicle alone. At 60 minutes after dosing, the animals were injected intravenously PAF-acether ([…] IV, dissolved in 0.25% BSA). One hour later, the survival animals were recorded. The prevention of PAF-induced mortality in 50 percent or more (≧50%) of mice indicated significant activity.

Assay [12] deals with T6, Protease - Elastase (Homo sapiens, UniProt P08246).
T6 construct: neutrophils; endogenous in cells; host or cells: human neutrophils
The assay is described as follows: Protease - Elastase enzyme assay. Format: biochemical. The settings on record: 30.0 μM; average of duplicate; negative = stimulation. Here is the method: as §1, §2, §3, §4, §5

T1 sequence (P00592 23-146): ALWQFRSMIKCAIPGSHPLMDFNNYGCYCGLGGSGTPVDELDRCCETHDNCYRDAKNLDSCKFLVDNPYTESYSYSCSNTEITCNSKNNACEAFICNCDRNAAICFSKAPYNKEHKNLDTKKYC
T2 sequence (Q15722 whole entry): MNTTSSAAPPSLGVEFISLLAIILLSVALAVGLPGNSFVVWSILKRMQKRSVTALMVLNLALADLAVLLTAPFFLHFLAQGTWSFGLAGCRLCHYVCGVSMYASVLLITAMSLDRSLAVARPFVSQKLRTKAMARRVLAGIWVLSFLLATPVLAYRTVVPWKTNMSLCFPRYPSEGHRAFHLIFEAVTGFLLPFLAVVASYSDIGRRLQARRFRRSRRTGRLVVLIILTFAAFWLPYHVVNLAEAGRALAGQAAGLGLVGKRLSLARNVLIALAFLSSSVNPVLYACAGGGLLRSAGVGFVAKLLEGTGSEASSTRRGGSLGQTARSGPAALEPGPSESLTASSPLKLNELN
T6 sequence (P08246 30-267): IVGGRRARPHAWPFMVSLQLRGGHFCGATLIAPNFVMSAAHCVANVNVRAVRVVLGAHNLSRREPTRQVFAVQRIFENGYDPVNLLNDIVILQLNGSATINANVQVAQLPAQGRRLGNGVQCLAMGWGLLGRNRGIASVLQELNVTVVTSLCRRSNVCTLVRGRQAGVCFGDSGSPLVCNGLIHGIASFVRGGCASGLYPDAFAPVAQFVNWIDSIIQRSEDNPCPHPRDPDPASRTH
T5 sequence (P13504 20-576): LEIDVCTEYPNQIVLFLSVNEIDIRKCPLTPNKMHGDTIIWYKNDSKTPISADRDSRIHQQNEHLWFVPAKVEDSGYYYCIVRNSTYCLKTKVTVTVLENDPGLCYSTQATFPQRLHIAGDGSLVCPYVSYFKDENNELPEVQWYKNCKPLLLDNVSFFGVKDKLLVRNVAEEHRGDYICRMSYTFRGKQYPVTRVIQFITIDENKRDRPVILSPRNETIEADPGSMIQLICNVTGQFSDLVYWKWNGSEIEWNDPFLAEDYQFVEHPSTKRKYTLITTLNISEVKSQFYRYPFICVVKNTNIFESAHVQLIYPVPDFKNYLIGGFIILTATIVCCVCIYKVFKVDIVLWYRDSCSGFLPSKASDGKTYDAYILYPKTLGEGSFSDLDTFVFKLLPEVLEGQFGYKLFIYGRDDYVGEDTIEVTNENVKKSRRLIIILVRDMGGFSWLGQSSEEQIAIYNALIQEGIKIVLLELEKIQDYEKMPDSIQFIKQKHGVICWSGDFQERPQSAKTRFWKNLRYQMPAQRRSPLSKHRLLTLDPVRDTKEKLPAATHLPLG
T3 sequence (P12527 whole entry): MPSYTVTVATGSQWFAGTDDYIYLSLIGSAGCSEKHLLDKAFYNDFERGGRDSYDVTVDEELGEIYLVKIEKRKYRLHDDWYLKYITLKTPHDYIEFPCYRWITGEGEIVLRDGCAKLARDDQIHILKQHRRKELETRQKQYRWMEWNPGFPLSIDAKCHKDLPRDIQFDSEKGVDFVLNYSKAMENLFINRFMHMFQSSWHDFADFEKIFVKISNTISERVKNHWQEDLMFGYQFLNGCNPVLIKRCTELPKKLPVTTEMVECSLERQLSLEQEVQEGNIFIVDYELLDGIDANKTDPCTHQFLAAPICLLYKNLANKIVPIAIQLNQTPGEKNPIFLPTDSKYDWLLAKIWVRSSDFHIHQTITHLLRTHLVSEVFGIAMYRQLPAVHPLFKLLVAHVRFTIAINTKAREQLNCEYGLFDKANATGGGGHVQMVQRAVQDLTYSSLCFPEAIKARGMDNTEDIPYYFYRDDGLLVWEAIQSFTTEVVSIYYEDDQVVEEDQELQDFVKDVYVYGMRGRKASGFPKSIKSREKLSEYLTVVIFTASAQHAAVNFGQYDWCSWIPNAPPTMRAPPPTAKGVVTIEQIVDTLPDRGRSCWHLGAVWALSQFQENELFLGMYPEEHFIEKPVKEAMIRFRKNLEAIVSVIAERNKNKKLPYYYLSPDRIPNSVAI
T4 sequence (Q9QYN8 whole entry): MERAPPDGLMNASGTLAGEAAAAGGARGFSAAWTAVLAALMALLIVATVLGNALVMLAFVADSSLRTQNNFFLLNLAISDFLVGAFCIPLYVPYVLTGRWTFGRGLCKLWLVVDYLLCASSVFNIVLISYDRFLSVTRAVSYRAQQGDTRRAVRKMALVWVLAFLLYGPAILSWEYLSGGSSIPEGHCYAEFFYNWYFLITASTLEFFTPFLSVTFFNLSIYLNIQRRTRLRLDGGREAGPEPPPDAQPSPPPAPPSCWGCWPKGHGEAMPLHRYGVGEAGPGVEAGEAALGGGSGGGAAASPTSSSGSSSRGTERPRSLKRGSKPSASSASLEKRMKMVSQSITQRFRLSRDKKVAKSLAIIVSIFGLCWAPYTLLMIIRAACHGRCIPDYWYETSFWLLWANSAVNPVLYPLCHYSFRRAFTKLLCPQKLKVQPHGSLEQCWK

The term % Inhibition denotes the drop in the measured response relative to a control, in per cent. Regarding LEU-PRO-PRO-SER-ARG [Peptide], the “% Inhibition” value is −11% in assay [1]; 8% in assay [2]; 0% in assay [3]; −11% in assay [4]; −6% in [6]; −13% in assay [7]. In addition, the “% Inhibition” value is −6% in assay [8], 15% in [9], 18% in assay [10] and −11% in assay [12]. The “anti-inflammatory response (percent inhibition)” value in [5] was determined as 116.3%. In addition, in [11] (PO one hour before PAF-acether 100 μg/kg IV), the “% Protection” value turned out to be 0%. Besides, the “No. of Survival” value in [11] (of 5 mice, one hour after PAF-acether 100 μg/kg IV, PO one hour before) worked out at 0.
